# What was measured:
# MER = biological target: T1, MER (Homo sapiens, UniProt Q12866); experiment: Kinase selectivity panel at 1 µM (Eurofins), MER; assay type: biochemical; settings: read-out: residual enzyme activity MER
# T1 construct: purchased Eurofins Discovery (France)
# T1 sequence (Q12866 21-999): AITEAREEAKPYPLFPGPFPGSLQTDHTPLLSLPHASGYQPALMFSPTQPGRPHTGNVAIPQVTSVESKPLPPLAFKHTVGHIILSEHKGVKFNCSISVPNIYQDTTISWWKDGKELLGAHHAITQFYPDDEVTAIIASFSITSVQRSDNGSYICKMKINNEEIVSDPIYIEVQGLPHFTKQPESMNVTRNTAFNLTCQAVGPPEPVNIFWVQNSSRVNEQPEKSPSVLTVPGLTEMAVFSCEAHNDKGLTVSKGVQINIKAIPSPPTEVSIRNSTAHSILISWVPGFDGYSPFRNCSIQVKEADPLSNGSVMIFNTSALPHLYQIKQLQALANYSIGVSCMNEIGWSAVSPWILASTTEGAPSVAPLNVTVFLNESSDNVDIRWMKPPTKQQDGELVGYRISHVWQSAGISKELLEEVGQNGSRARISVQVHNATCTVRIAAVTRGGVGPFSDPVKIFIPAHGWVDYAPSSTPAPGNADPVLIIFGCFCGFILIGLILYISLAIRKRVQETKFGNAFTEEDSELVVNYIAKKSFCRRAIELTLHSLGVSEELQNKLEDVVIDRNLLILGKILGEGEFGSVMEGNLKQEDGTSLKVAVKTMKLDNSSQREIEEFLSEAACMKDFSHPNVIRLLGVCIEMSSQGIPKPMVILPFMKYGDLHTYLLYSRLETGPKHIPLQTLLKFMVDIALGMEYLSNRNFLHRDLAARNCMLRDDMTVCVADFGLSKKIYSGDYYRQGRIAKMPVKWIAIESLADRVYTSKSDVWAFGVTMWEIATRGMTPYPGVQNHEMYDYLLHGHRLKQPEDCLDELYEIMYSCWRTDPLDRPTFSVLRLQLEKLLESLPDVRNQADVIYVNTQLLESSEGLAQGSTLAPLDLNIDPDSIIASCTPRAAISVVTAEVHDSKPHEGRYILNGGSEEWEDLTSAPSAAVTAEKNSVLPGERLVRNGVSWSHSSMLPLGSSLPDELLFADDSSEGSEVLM
# Description: (§1) Three representative compounds (14d, 14e, and 15a) were profiled in a 1 µM concentration against 30 kinases that were selected as known off-targets of approved CDK4/6 inhibitors. […] Additional sensitive kinases include STK16, EphA1, MEKK2, SRC, and MER (≤10% of residual enzyme activities), which are not targets of the structurally similar CDK4/6 inhibitor, trilaciclib. We also screened compound 15a, an analogue of 14d, bearing isopropyl at position 7 of the purine instead of the methyl group. This change rapidly diminished the potency against CDK4 (dropped to 90% of residual enzyme activity), but the preference for FLT3 remained (1st rank) (Figure 2).
# (§2) CDK/cyclin complexes and FLT3 kinases were assayed as previously described. Protein kinase selectivity was evaluated at a single concentration (1 µM) by screening against 30 enzymes at Eurofins Discovery (France).
# STK16 = biological target: T2, STK16 (Homo sapiens, UniProt O75716); experiment: Kinase selectivity panel at 1 µM (Eurofins), STK16; assay type: biochemical; settings: read-out: residual enzyme activity STK16
# T2 construct: purchased Eurofins Discovery (France)
# Description: as §1, §2
# MEKK2 = biological target: T3, MEKK2 (Homo sapiens, UniProt Q9Y2U5); experiment: Kinase selectivity panel at 1 µM (Eurofins), MEKK2; assay type: biochemical; settings: read-out: residual enzyme activity MEKK2
# T3 construct: purchased Eurofins Discovery (France)
# T3 sequence (Q9Y2U5 1-619): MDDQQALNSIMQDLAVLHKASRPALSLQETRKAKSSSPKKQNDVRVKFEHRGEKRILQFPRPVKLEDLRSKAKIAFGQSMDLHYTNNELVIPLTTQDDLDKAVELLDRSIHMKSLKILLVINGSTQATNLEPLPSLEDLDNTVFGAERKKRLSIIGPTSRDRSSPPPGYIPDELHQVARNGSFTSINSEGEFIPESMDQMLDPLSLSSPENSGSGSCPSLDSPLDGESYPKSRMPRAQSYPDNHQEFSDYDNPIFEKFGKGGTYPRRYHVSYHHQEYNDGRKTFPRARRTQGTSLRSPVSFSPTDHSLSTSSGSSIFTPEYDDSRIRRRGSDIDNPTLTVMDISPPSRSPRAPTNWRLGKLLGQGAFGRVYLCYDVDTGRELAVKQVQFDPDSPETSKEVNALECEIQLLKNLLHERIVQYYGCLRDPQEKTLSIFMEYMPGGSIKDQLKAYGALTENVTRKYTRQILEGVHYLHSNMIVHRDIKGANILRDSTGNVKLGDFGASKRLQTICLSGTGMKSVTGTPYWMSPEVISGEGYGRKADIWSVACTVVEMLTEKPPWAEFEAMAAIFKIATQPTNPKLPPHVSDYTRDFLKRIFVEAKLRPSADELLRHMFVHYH
# Description: as §1, §2
# K562 cells = experiment: Flow cytometric cell cycle analysis, K562; assay type: cell-based, Human; settings: 24 h
# Description: FLT3 inhibition causes G1-cell cycle arrest in FLT3-dependent cell lines such as MV4-11; we, therefore, performed flow cytometric analysis to evaluate cell cycle changes in MV4-11 and K562 cell lines treated with 200 nM compounds for 24 h. […] Specifically, 18 compounds arrested >85% of cells in the G1 phase, which is >30% cells in the G1 phase of the cell cycle than in control cells (Figure 4A).
# Finally, we performed flow cytometric analysis with different concentrations of 15a in MV4-11 and MOLM13 (another FLT-ITD positive cell line) and K562 cell lines treated for 24 h (Figure 5).
# Asynchronously growing cells were seeded into a 96-well plate and, after a preincubation period, treated with tested compounds for 24 h. The treated cells were stained directly (or after trypsinization for the adherent cells) with the 5× staining solution (17 mM trisodium citrate dihydrate, 0.5% IGEPAL CA-630, 7.5 mM spermine tetrahydrochloride, and 2.5 mM Tris; pH 7.6 containing […] propidium iodide). After the staining, DNA content was analyzed using flow cytometry using a 488 nm laser (BD FACS Verse with software BD FACSuite^TM, version 1.0.6). Cell cycle distribution was analyzed using ModFit LT (Verity Software House, version 5.0). Palbociclib, trilaciclib, and quizartinib were purchased from MedChemExpress, Monmouth Junction, NJ, USA.
# [1] = test system: FLT3 signaling (FLT3 Y589/591, STAT5, ERK1/2) in MV4-11 cells; experiment: Western blot of FLT3 and downstream signaling in MV4-11; assay type: cell-based, Human; settings: MV4-11, 1 h treatment
# Description: Next, we investigated the compounds for their ability to inhibit FLT3 and its downstream signaling in the MV4-11 cell line.
# Cell lysates were prepared, and then proteins were separated on SDS-polyacrylamide gels and electroblotted onto nitrocellulose membranes.
# T2 sequence (O75716 whole entry): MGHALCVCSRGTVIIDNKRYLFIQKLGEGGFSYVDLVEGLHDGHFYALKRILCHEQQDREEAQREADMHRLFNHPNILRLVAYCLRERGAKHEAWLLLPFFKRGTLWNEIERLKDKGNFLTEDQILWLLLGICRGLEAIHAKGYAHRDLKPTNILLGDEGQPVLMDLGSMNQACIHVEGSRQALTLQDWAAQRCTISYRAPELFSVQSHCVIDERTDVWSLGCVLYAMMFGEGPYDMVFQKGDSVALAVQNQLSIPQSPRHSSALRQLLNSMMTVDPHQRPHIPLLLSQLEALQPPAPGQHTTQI
remaining activity at 1 µM (MER),remaining activity at 1 µM (STK16),remaining activity at 1 µM (MEKK2),SMILES,effect on cell cycle (G1 arrest) in K562 (K562 cells; 200 nM),autophosphorylation of FLT3 kinase at Y589/591 [1],phosphorylation of downstream proteins STAT5 and ERK1/2 [1],cell cycle changes in K562 (K562 cells; different concentrations),concentration at which dephosphorylation of FLT3 was observed [1],concentration giving nearly complete suppression of ERK1/2 [1]
≤ 10%,≤ 10%,≤ 10%,Cn1c(=O)n(C2CCCC2)c2nc(Nc3ccc(N4CCNCC4)cc3)ncc21 [14d],–,–,–,–,–,–
≤ 10%,≤ 10%,≤ 10%,Cn1c(=O)n(C2CCCCC2)c2nc(Nc3ccc(N4CCNCC4)cc3)ncc21 [14e],moderate G1 block,inhibits autophosphorylation of FLT3 kinase at Y589/591,diminishes the phosphorylation,–,–,–
–,–,–,"CC(C)n1c(=O)n(C2CCCC2)c2nc(Nc3ccc(N4CCNCC4)cc3)ncc21 [15a, 9-cyclopentyl-7-isopropyl-2-((4-(piperazin-1-yl)phenyl)amino)-7,9-dihydro-8H-purin-8-one]",–,–,–,did not show any changes,8 nM,40 nM
